Where a name gives a salt, the structure may show the parent alone.

The IC50 is the midpoint of a concentration-inhibition curve.

Sequence of human recombinant LRRK2 protein (Q5S007 whole entry): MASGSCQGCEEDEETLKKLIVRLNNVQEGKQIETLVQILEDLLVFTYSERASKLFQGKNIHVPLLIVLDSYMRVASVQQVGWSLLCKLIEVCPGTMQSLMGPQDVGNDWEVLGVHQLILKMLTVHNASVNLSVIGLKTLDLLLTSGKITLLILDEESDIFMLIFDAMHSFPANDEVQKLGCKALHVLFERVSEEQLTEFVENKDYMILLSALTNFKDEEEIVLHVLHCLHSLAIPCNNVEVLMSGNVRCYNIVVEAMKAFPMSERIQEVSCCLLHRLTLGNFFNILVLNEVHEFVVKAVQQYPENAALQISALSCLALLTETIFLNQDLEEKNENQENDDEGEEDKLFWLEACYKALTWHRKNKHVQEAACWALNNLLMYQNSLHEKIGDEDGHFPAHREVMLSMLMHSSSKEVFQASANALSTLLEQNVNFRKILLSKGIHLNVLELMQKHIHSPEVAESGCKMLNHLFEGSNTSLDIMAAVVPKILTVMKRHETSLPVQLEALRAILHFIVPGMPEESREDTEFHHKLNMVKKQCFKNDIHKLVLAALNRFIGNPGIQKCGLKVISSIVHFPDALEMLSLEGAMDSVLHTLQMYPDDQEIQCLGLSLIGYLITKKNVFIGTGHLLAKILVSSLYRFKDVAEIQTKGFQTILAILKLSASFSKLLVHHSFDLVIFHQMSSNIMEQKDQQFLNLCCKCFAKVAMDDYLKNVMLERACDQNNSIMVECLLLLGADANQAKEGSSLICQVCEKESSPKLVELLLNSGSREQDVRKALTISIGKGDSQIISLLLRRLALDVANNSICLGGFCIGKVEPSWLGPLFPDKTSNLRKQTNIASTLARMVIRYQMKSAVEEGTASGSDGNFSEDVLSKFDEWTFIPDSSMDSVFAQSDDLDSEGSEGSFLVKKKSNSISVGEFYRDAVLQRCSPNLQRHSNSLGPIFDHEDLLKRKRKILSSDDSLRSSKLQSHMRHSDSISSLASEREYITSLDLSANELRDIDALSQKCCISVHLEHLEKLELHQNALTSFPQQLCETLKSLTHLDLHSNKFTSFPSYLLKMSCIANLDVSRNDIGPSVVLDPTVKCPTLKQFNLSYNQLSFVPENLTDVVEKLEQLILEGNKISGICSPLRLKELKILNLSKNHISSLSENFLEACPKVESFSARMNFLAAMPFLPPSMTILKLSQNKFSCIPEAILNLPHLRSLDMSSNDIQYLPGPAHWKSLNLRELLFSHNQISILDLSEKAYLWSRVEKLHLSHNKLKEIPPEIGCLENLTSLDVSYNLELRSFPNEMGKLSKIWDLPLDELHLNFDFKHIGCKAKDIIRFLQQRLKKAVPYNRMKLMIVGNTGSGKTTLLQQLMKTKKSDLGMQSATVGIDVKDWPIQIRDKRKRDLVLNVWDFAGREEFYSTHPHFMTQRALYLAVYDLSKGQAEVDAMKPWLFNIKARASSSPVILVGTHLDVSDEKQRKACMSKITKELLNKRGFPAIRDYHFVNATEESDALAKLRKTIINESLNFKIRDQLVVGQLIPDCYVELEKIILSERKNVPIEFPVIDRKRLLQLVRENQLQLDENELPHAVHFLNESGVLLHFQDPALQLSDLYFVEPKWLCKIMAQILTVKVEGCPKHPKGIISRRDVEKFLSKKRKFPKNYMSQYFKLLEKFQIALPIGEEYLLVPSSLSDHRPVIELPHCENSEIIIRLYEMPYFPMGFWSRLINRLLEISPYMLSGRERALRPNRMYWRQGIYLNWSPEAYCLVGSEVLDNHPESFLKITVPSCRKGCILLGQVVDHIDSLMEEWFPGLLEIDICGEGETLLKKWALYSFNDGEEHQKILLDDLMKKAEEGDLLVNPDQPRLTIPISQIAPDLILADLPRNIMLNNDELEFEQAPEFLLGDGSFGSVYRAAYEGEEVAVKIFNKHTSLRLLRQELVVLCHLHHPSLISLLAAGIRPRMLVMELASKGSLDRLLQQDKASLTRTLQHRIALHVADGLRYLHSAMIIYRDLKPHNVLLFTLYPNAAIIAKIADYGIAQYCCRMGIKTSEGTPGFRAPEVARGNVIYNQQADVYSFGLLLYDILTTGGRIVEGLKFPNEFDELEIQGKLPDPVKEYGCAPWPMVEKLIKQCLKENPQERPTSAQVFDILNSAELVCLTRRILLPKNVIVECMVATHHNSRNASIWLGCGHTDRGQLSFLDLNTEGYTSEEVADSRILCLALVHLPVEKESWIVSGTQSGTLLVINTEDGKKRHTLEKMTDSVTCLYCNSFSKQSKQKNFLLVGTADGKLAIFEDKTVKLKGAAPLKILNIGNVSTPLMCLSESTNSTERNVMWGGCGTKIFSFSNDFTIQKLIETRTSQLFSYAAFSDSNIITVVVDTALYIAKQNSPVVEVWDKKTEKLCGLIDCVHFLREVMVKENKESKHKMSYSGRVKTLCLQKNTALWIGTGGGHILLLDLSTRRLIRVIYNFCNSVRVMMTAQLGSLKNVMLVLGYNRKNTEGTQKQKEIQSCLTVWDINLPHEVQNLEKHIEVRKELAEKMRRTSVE

This experiment concerns the target human recombinant LRRK2 protein (Homo sapiens, UniProt Q5S007). Kind of experiment: LRRK2 kinase activity assay (ADP-Glo, LRRKtide peptide). Particulars: human recombinant LRRK2 wt, LRRKtide peptide and ATP, 1 h at 37° C. The class given is biochemical. Here is the method:
The inhibition of LRRK2 kinase was assessed using human recombinant LRRK2 protein in an in vitro peptide-based kinase assay.
LRRK2 Kinase reactions were carried out in 384-well white polystyrene plates in a final volume of 6 μl using ADP-Glo™ Kinase Assay kit (Promega Corp.). Compound and substrates (LRRKtide peptide and ATP) in assay buffer were first dispensed in wells. Kinase reaction was then started by the addition of human recombinant LRRK2 protein. After 1 h-incubation at 37° C., the enzymatic reactions was stopped by the addition of 6 μl of ADP-Glo Reagent-1 and an additional 40-minutes incubation at 23° C. (residual ATP depletion). A final 30-minutes incubation after 12 μL reagent-2 addition (ADP to ATP conversion and luciferin/luciferase reaction) was performed before luminescent signal acquisition (EnVision™ multimode plate reader—PerkinElmer, Inc.). Data from 10 individual concentrations of tested compounds (N=2) were fitted (XLfit™—ID Business Solutions Ltd) to deliver IC50s (compound concentration leading to 50% inhibition of reference enzymatic activity).
The compounds are dissolved to 5 mM in DMSO. When needed, solutions are sonicated in a bath sonicator.
Table 2 provides the pIC50 values of the compounds according to the invention, obtained using the above mentioned kinase assay. Activities are represented as +++, ++ and +, having the following meanings: • «+++» means an IC50<10 nM • «++» means an IC50<100 nM • «+» means an IC50<1 μM • «−» means an IC50>1 μM
In general terms: ADP-Glo first removes unused ATP, then detects ADP through luciferase.
As to `C[C@@H]1CNCCO[C@@H](C)c2cncc(c2)-c2n[nH]c3ccc(cc23)O1` (single isomer, unassigned) [Example 234, (7S or 7R,13R)-7,13-dimethyl-8,14-dioxa-4,11,19,20-tetraazatetracyclo[13.5.2.1^2,6.0^18,21]tricosa-1(20),2(23),3,5,15(22),16,18(21)-heptaene], the IC50 is less than 1000 nM.

As for `C[C@@H]1CNCCO[C@H](C)c2cncc(c2)-c2n[nH]c3ccc(cc23)O1` (single isomer, unassigned) [Example 235, (7R or 7S,13R)-7,13-dimethyl-8,14-dioxa-4,11,19,20-tetraazatetracyclo[13.5.2.1^2,6.0^18,21]tricosa-1(20),2(23),3,5,15(22),16,18(21)-heptaene], the concentration for half-maximal inhibition (IC50) was less than 100 nM.

Turning to `c1cc2[nH]nc3c2cc1NCCOCCOc1cc-3cc(N2CCOCC2)c1` [Example 1, 4-(morpholin-4-yl)-7,10-dioxa-13,18,19-triazatetracyclo[12.5.2.1^2,6.0^17,20] docosa-1(19),2(22),3,5,14(21),15,17(20)-heptaene], the concentration for half-maximal inhibition (IC50) was less than 10 nM. Regarding `c1cc2[nH]nc3c2cc1OCCCOCCOc1cncc-3c1` [Example 2, 7,10,14-trioxa-4,19,20-triazatetracyclo[13.5.2.1^2,6.0^18,21]tricosa-1(20),2(23), 3,5,15(22),16,18(21)-heptaene], the IC50 was less than 10 nM. As for `c1cc2[nH]nc3c2cc1OCCOCCCOc1cc-3cc(N2CCOCC2)c1` [Example 3, 4-(morpholin-4-yl)-7,11,14-trioxa-19,20-diazatetracyclo[13.5.2.1^2,6.0^18,21] tricosa-1(20),2(23),3,5,15(22),16,18(21)-heptaene], the figure is less than 10 nM; as for `c1cc2[nH]nc3c2cc1NCCCOCCOc1cncc-3c1` [Example 4, 7,10-dioxa-4,14,19,20-tetraazatetracyclo[13.5.2.1^2,6.0^18,21]tricosa-1(20),2(23), 3,5,15(22),16,18(21)-heptaene], less than 10 nM. Then `c1cc2[nH]nc3c2cc1OCCCOCCCn1cc-3cn1` [Example 5, 9,13-dioxa-4,5,18,19-tetraazatetracyclo[12.5.2.1^2,5.0^17,20] docosa-1(19),2(22),3,14(21),15,17(20)-hexaene], with less than 10 nM; and `c1cc2[nH]nc3c2cc1OCCCOCCCCn1cc-3cn1` [Example 6, 10,14-dioxa-4,5,19,20-tetraazatetracyclo[13.5.2.1^2,5.0^18,21]tricosa-1(20),2(23), 3,15(22),16,18(21)-hexaene], with less than 10 nM. Then `C[C@@H]1COCCCOc2nccc(n2)-c2n[nH]c3ccc(cc23)O1` [Example 7, (13R)-13-methyl-7,11,14-trioxa-5,19,20,23-tetraazatetracyclo[13.5.2.1^2,6.0^18,21]tricosa-1(20),2(23),3,5,15(22),16,18(21)-heptaene], with less than 10 nM. Take `C[C@@H]1CCOCCCOc2ccc3[nH]nc(c3c2)-c2cnn1c2` [Example 8, (6R)-6-methyl-9,13-dioxa-4,5,18,19-tetraazatetracyclo[12.5.2.1^2,5.0^17,20] docosa-1(19),2(22),3,14(21),15,17(20)-hexaene]: the IC50 is less than 10 nM. Then `C[C@@H]1OCCOC[C@H](C)Oc2ccc3[nH]nc(c3c2)-c2cncc1c2` [Example 9, (7S,13S)-7,13-dimethyl-8,11,14-trioxa-4,19,20-triazatetracyclo[13.5.2.1^2,6.0^18,21]tricosa-1(20),2(23),3,5,15(22),16,18(21)-heptaene], with less than 100 nM; and `C[C@H]1COCCO[C@H](C)c2cncc(c2)-c2n[nH]c3ccc(cc23)O1` [Example 10, (7R,13S)-7,13-dimethyl-8,11,14-trioxa-4,19,20-triazatetracyclo[13.5.2.1^2,6.0^18,21]tricosa-1(20),2,4,6(23),15(22),16,18(21)-heptaene], with less than 100 nM. As for `C[C@@H]1COCC[C@H](C)Oc2cncc(c2)-c2n[nH]c3ccc(cc23)O1` [Example 11, (8S,13R)-8,13-dimethyl-7,11,14-trioxa-4,19,20-triazatetracyclo[13.5.2.1^2,6.0^18,21]tricosa-1(20),2(23),3,5,15(22),16,18(21)-heptaene], the figure is less than 100 nM; as for `C[C@H]1CCOC[C@H](C)Oc2ccc3[nH]nc(c3c2)-c2cncc(c2)O1` [Example 12, (8S,13S)-8,13-dimethyl-7,11,14-trioxa-4,19,20-triazatetracyclo[13.5.2.1^2,6.0^18,21]tricosa-1(20),2(23),3,5,15(22),16,18(21)-heptaene], less than 100 nM.

In the case of `C[C@@H]1COCCO[C@H](C)c2cncc(c2)-c2n[nH]c3ccc(cc23)O1` [Example 13, (7R,13R)-7,13-dimethyl-8,11,14-trioxa-4,19,20-triazatetracyclo[13.5.2.1^2,6. 0^18,21]tricosa-1(20),2(23),3,5,15(22),16,18(21)-heptaene hydrochloride], the IC50 was less than 100 nM.

As to `C[C@@H]1COCCO[C@@H](C)c2cncc(c2)-c2n[nH]c3ccc(cc23)O1` [Example 14, (7S,13R)-7,13-dimethyl-8,11,14-trioxa-4,19,20-triazatetracyclo[13.5.2.1^2,6. 0^18,21]tricosa-1(20),2(23),3,5,15(22),16,18(21)-heptaene hydrochloride], the IC50 was less than 100 nM.

In the case of `C[C@H]1CCOCCCOc2ccc3[nH]nc(c3c2)-c2cnn1c2` [Example 15, (6S)-6-methyl-9,13-dioxa-4,5,18,19-tetraazatetracyclo[12.5.2.1^2,5.0^17,20] docosa-1(19),2(22),3,14(21),15,17(20)-hexaene], the IC50 is less than 10 nM. Regarding `C[C@H]1CCOCCOc2nccc(n2)-c2n[nH]c3ccc(cc23)O1` [Example 16, (13S)-13-methyl-7,10,14-trioxa-5,19,20,23-tetraazatetracyclo[13.5.2.1^2,6. 0^18,21]tricosa-1(20),2(23),3,5,15(22),16,18(21)-heptaene], the concentration for half-maximal inhibition (IC50) was less than 10 nM. As for `C[C@@H]1CCOC[C@@H](C)Oc2ccc3[nH]nc(c3c2)-c2cncc(c2)O1` [Example 17, (8R,13R)-8,13-dimethyl-7,11,14-trioxa-4,19,20-triazatetracyclo[13.5.2.1^2,6. 0^18,21]tricosa-1(20),2(23),3,5,15(22),16,18(21)-heptaene], the figure is less than 10 nM; as for `C[C@@H]1CCOC[C@H](C)Oc2ccc3[nH]nc(c3c2)-c2cncc(c2)O1` [Example 18, (8R,13S)-8,13-dimethyl-7,11,14-trioxa-4,19,20-triazatetracyclo[13.5.2.1^2,6. 0^18,21]tricosa-1(20),2(23),3,5,15(22),16,18(21)-heptaene], less than 10 nM.

For `C[C@H]1COCCCOc2nc(cc(N3CCCC3)n2)-c2n[nH]c3ccc(cc23)O1` [Example 19, (13S)-13-methyl-4-(pyrrolidin-1-yl)-7,11,14-trioxa-5,19,20,23-tetraazatetra cyclo[13.5.2.1^2,6.0^18,21]tricosa-1(20),2(23),3,5,15(22),16,18(21)heptaene], the IC50 was less than 10 nM. In the case of `C[C@H]1CCOC[C@H](C)Oc2cncc(c2)-c2n[nH]c3ccc(cc23)O1` [Example 20, (8S,13S)-8,13-dimethyl-7,10,14-trioxa-4,19,20-triazatetracyclo[13.5.2.1^2,6. 0^18,21]tricosa-1(20),2(23),3,5,15(22),16,18(21)-heptaene], the IC50 is less than 100 nM. Turning to `C[C@@H]1COCC[C@H](C)Oc2ccc3[nH]nc(c3c2)-c2cncc(c2)O1` [Example 21, (8R,13S)-8,13-dimethyl-7,10,14-trioxa-4,19,20-triazatetracyclo[13.5.2.1^2,6.0^18,21]tricosa-1(20),2(23),3,5,15(22),16,18(21)-heptaene], the IC50 is less than 10 nM. For the compound `C[C@@H]1CCOC[C@H](C)Oc2cncc(c2)-c2n[nH]c3ccc(cc23)O1` [Example 22, (8S,13R)-8,13-dimethyl-7,10,14-trioxa-4,19,20-triazatetracyclo[13.5.2.1^2,6.0^18,21]tricosa-1(20),2(23),3,5,15(22),16,18(21)-heptaene], the 50% inhibitory concentration (IC50) was less than 10 nM. As for `C[C@@H]1CCOC[C@@H](C)Oc2cncc(c2)-c2n[nH]c3ccc(cc23)O1` [Example 23, (8R,13R)-8,13-dimethyl-7,10,14-trioxa-4,19,20-triazatetracyclo[13.5.2.1^2,6.0^18,21]tricosa-1(20),2(23),3,5,15(22),16,18(21)-heptaene], the figure is less than 10 nM.

On to `C[C@H]1COCCOCCn2cc(cn2)-c2n[nH]c3ccc(cc23)O1` [Example 24, (13S)-13-methyl-8,11,14-trioxa-4,5,19,20-tetraazatetracyclo[13.5.2.1^2,5.0^18,21]tricosa-1(20),2(23),3,15(22),16,18(21)-hexaene], for which the IC50 was less than 10 nM. Then `C[C@@H]1CCOCC[C@H](C)Oc2ccc3[nH]nc(c3c2)-c2cnn1c2` [Example 25, (6R,12S)-6,12-dimethyl-9,13-dioxa-4,5,18,19-tetraazatetracyclo[12.5.2.1^2,5.0^17,20]docosa-1(19),2(22),3,14(21),15,17(20)-hexaene], with less than 100 nM; and `C[C@H]1COCCCOc2nccc(n2)-c2n[nH]c3ccc(cc23)O1` [Example 26, (13S)-13-methyl-7,11,14-trioxa-5,19,20,23-tetraazatetracyclo[13.5.2.1^2,6.0^18,21]tricosa-1(20),2(23),3,5,15(22),16,18(21)-heptaene], with less than 10 nM.

Values taken from patent US20240246992A1, “MACROCYCLIC LRRK2 KINASE INHIBITORS” (LES LABORATOIRES SERVIER, priority 2021, published 2024).
